Measured values reported in ChEMBL document CHEMBL1201862, “PubChem BioAssay data set” (2004).
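Test compounds were applied to cells in 96-well plates for 48 hours at 5 doses. GI50 is the concentration that inhibits growth by half.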 The source made the active and inactive calls. Cut-off read from the data, not from the text of the source: active = GI50 up to about 1.1 µM and inactive = higher.

Experiments:
Assay in all cases: NCI tumour cell line growth inhibition, 48 h
DU-145 = tested on: DU-145
SW-620 = tested on: SW-620
COLO 205 = tested on: COLO 205
OVCAR-5 = tested on: OVCAR-5
KM12 = tested on: KM12
SF-295 = tested on: SF-295
NCI-H460 = tested on: NCI-H460
NCI/ADR-RES = tested on: NCI/ADR-RES
MDA-N = tested on: MDA-N
SNB-19 = tested on: SNB-19
UACC-62 = tested on: UACC-62
OVCAR-8 = tested on: OVCAR-8
SK-OV-3 = tested on: SK-OV-3
BT-549 = tested on: BT-549
M14 = tested on: M14
UO-31 = tested on: UO-31
OVCAR-4 = tested on: OVCAR-4
SNB-75 = tested on: SNB-75
HCT-15 = tested on: HCT-15
RXF 393 = tested on: RXF 393
ACHN = tested on: ACHN
MCF7 = tested on: MCF7
SK-MEL-2 = tested on: SK-MEL-2
LOX IMVI = tested on: LOX IMVI
OVCAR-3 = tested on: OVCAR-3
SN12C = tested on: SN12C
A498 = tested on: A498
HOP-62 = tested on: HOP-62
EKVX = tested on: EKVX
NCI-H226 = tested on: NCI-H226
T47D = tested on: T47D
U-251 = tested on: U-251
CCRF-CEM = tested on: CCRF-CEM
SK-MEL-5 = tested on: SK-MEL-5
HT-29 = tested on: HT-29
IGROV-1 = tested on: IGROV-1
Malme-3M = tested on: Malme-3M
Hs-578T = tested on: Hs-578T
786-0 = tested on: 786-0
UACC-257 = tested on: UACC-257
MDA-MB-435 = tested on: MDA-MB-435
SF-268 = tested on: SF-268
PC-3 = tested on: PC-3
A549 = tested on: A549
NCI-H522 = tested on: NCI-H522
MDA-MB-231 = tested on: MDA-MB-231
HCT-116 = tested on: HCT-116
HOP-92 = tested on: HOP-92
SF-539 = tested on: SF-539
TK-10 = tested on: TK-10
SK-MEL-28 = tested on: SK-MEL-28
NCI-H23 = tested on: NCI-H23
CAKI-1 = tested on: CAKI-1
K562 = tested on: K562
HCC 2998 = tested on: HCC 2998
MOLT-4 = tested on: MOLT-4
RPMI-8226 = tested on: RPMI-8226

CC(=O)SSC1(Cl)C(C)(C)C(Cl)(SSC(C)=O)C1(C)C (centres undefined)
GI50 (DU-145): 29.6 µM (inactive)
GI50 (SW-620): 40.1 µM (inactive)
GI50 (COLO 205): > 100 µM (inactive)
GI50 (OVCAR-5): > 100 µM (inactive)
GI50 (KM12): 39.4 µM (inactive)
GI50 (SF-295): 43.5 µM (inactive)
GI50 (NCI-H460): 28.5 µM (inactive)
GI50 (NCI/ADR-RES): 40.2 µM (inactive)
GI50 (MDA-N): 65 µM (inactive)
GI50 (SNB-19): 35 µM (inactive)
GI50 (UACC-62): 52.6 µM (inactive)
GI50 (OVCAR-8): 39.4 µM (inactive)
GI50 (SK-OV-3): > 100 µM (inactive)
GI50 (BT-549): > 100 µM (inactive)
GI50 (M14): 84.1 µM (inactive)
GI50 (UO-31): 94.8 µM (inactive)
GI50 (OVCAR-4): 48.1 µM (inactive)
GI50 (SNB-75): 30.4 µM (inactive)
GI50 (HCT-15): 34.7 µM
GI50 (RXF 393): 21 µM (inactive)
GI50 (ACHN): 63.4 µM (inactive)
GI50 (MCF7): 33.6 µM (inactive)
GI50 (SK-MEL-2): > 100 µM (inactive)
GI50 (LOX IMVI): 33.3 µM (inactive)
GI50 (OVCAR-3): 61.4 µM (inactive)
GI50 (SN12C): 77.8 µM (inactive)
GI50 (A498): 67.5 µM (inactive)
GI50 (HOP-62): 44.3 µM (inactive)
GI50 (EKVX): 39.9 µM (inactive)
GI50 (NCI-H226): > 100 µM (inactive)
GI50 (T47D): 20.8 µM (inactive)
GI50 (U-251): 33.3 µM (inactive)
GI50 (CCRF-CEM): 24 µM (inactive)
GI50 (SK-MEL-5): 29.8 µM (inactive)
GI50 (HT-29): 49.4 µM (inactive)
GI50 (IGROV-1): 51.2 µM (inactive)
GI50 (Malme-3M): 84.5 µM (inactive)
GI50 (Hs-578T): > 100 µM (inactive)
GI50 (786-0): 49.2 µM (inactive)
GI50 (UACC-257): 41.3 µM (inactive)
GI50 (MDA-MB-435): 49.1 µM (inactive)
GI50 (SF-268): 43.6 µM (inactive)
GI50 (PC-3): 41.3 µM (inactive)
GI50 (A549): 73.6 µM (inactive)
GI50 (NCI-H522): 38.8 µM (inactive)
GI50 (MDA-MB-231): > 100 µM (inactive)
GI50 (HCT-116): 44 µM (inactive)
GI50 (HOP-92): > 100 µM (inactive)
GI50 (SF-539): 24.5 µM (inactive)
GI50 (TK-10): 75.2 µM (inactive)
GI50 (SK-MEL-28): > 100 µM (inactive)
GI50 (NCI-H23): 57.1 µM (inactive)
GI50 (CAKI-1): > 100 µM (inactive)

N#Cc1c(C#N)c(SSc2c(C#N)c(C#N)c(N)n2-c2ccccc2)n(-c2ccccc2)c1N
GI50 (DU-145): 18.6 µM (inactive)
GI50 (SW-620): 1.77 µM (inactive)
GI50 (COLO 205): 1.99 µM (inactive)
GI50 (OVCAR-5): 36.4 µM (inactive)
GI50 (KM12): 25.4 µM (inactive)
GI50 (SF-295): 24.9 µM (inactive)
GI50 (NCI-H460): 30.6 µM (inactive)
GI50 (NCI/ADR-RES): 33.8 µM (inactive)
GI50 (MDA-N): 28.8 µM (inactive)
GI50 (SNB-19): 22.4 µM (inactive)
GI50 (UACC-62): 16.9 µM (inactive)
GI50 (K562): 4.38 µM (inactive)
GI50 (OVCAR-8): > 100 µM (inactive)
GI50 (SK-OV-3): 19.3 µM (inactive)
GI50 (BT-549): 5.57 µM (inactive)
GI50 (M14): 7.69 µM (inactive)
GI50 (UO-31): 1.91 µM (inactive)
GI50 (OVCAR-4): 2.25 µM (inactive)
GI50 (SNB-75): 31.8 µM (inactive)
GI50 (HCT-15): 2.77 µM
GI50 (RXF 393): 18.3 µM (inactive)
GI50 (ACHN): 5.08 µM (inactive)
GI50 (MCF7): 2.39 µM (inactive)
GI50 (SK-MEL-2): 21.1 µM (inactive)
GI50 (LOX IMVI): 86.7 µM (inactive)
GI50 (OVCAR-3): 16.7 µM (inactive)
GI50 (SN12C): 19.7 µM (inactive)
GI50 (A498): 20.7 µM (inactive)
GI50 (HOP-62): 28.4 µM (inactive)
GI50 (EKVX): 20.9 µM (inactive)
GI50 (NCI-H226): 22.3 µM (inactive)
GI50 (T47D): 2.44 µM (inactive)
GI50 (U-251): 21.6 µM (inactive)
GI50 (SK-MEL-5): 6.22 µM (inactive)
GI50 (HT-29): 40.5 µM (inactive)
GI50 (IGROV-1): 28.4 µM (inactive)
GI50 (Malme-3M): 2 µM (inactive)
GI50 (Hs-578T): 24.7 µM (inactive)
GI50 (786-0): 9.44 µM (inactive)
GI50 (UACC-257): 24.8 µM (inactive)
GI50 (MDA-MB-435): 14.9 µM (inactive)
GI50 (SF-268): 27.7 µM (inactive)
GI50 (PC-3): 20.9 µM (inactive)
GI50 (A549): 36 µM (inactive)
GI50 (NCI-H522): 3.47 µM (inactive)
GI50 (MDA-MB-231): 40.9 µM (inactive)
GI50 (HCT-116): 3.33 µM (inactive)
GI50 (HOP-92): 2.08 µM (inactive)
GI50 (SF-539): 92.9 µM (inactive)
GI50 (HCC 2998): 20.9 µM (inactive)
GI50 (TK-10): 1.82 µM (inactive)
GI50 (SK-MEL-28): 20.3 µM (inactive)
GI50 (NCI-H23): 23.6 µM (inactive)
GI50 (MOLT-4): 5.89 µM (inactive)
GI50 (RPMI-8226): 2.78 µM (inactive)
GI50 (CAKI-1): 2.14 µM (inactive)
